Data set [1] deals with preclinical model of diabetic nephropathy. The settings on record: K. O. Cameron et al., J. Med. Chem. 2016; cited from earlier work.
The conditions of data set [2]: background statement; cited from earlier work.
Data set [3] has as its system obese ZSF1 rats. Description: Glomerular filtration rate (FITC-sinistrin, transcutaneous) in obese ZSF1 rats. The data set is classed as in vivo, rat. As to conditions: 150 mg/kg oral gavage twice a day, 90 days (24 weeks of age), vs untreated ZSF1 rats. From the text:
(§1) ZSF1 rat is a Leptin-resistant, obese, hypertensive Zucker diabetic fatty/Spontaneously hypertensive heart failure F1 hybrid (ZSF1) rat. The obese ZSF1 rat is described as a relevant pre-clinical model for the study of renal function decline to end stage renal disease in the setting of type 2 diabetes (Dower K et al., PLOS ONE 2017; 12 (7): e0181861).
(§2) Obese ZSF1 rats and lean ZSF1 (Lean) were 12-week-old at the time of treatment initiation.
(§3) The following groups were constituted: • Lean rats (untreated; n=5-8) • ZSF1 rats (untreated; n=9-12) • ZSF1 treated with PXL770 (n=8-12).
(§4) The compound of Example 2, also known as PXL770 was administered by oral gavage at the dose of 150 mg/kg twice a day for 8 days (13 weeks of age) or 90 days (24-week old of age).
(§5) The PXL770 suspension was prepared at the concentrations used in the study (150 mg/kg) in the vehicle, i.e. carboxymethylcellulose 0.5%/Tween 80 (98/2).
At D8 and D90, glomerular filtration rate was determined with the fluorescent glomerular filtration rate tracer fluorescein isothiocyanate (FITC)-sinistrin using the transcutaneous glomerular filtration rate system (NIC-Kidney; Mannheim Pharma and Diagnostics GmbH, Mannheim, Germany) (Schock-Kusch D. et al., PLOS One 2013; 8, e71519). […]

For data set [4], the system named is obese ZSF1 rats. Description: Albuminuria in 15 h overnight urine of obese ZSF1 rats. Format: in vivo, rat. The settings on record: 150 mg/kg oral gavage twice a day.
Text: as §1, §2, §3, §4, §5
(§6) Randomly selected animals of each group (n=8-12) were placed in separate metabolic cages in order to collect 15 h over-night urine samples at D8 and D90. Albuminuria was determined as indicator of renal dysfunction using IDEXX Vetlab analyzer. Glycosuria was determined using IDEXX Vetlab analyzer. […]

Data set [5] concerns obese ZSF1 rats. Description: Glycosuria in 15 h overnight urine of obese ZSF1 rats. Format: in vivo, rat. The settings on record: 150 mg/kg oral gavage twice a day.
Text: as §1, §2, §3, §4, §5, §6

The test system of data set [6] is obese ZSF1 rats. Description: Urine volume (15 h overnight, metabolic cages) of obese ZSF1 rats. Format: in vivo, rat. The settings on record: 150 mg/kg oral gavage twice a day, 90 days, vs untreated ZSF1 rats.
Text: as §1, §2, §3, §4, §5, §6

For data set [7] the following is noted: background statement; cited from earlier work. This is another data set of the same source.

`O=C(O)c1c[nH]c2cc(Cl)c(-c3ccc(C4(O)CCC4)cc3)cc12` [PF-06409577]: the “Efficacy in a preclinical model of diabetic nephropathy” value in data set [1] is on record as “showed efficacy”.
Regarding `N#Cc1c(O)c2c(-c3ccc(-c4ccccc4O)cc3)csc2[nH]c1=O` [Compound A-799662], in data set [2], the Oral bioavailability result is “poor oral bioavailability”.
For `O=c1[nH]c2sc(Cl)c(-c3ccc4c(c3O)CCCC4)c2c([O-])c1-c1ccccc1.[K+]` [PXL770, monohydrate potassium salt of 2-chloro-4-hydroxy-3-(5-hydroxytetralin-6-yl)-5-phenyl-7H-thieno[2,3-b]pyridin-6-one], the “Glomerular filtration rate (GFR)” value in data set [3] was “significantly prevented the decrease in GFR”. For the same compound, the “Albuminuria (urine albumin level)” value was “a decrease in albuminuria was observed” in data set [4] (8 days (13 weeks of age), vs age-matched untreated ZSF1 rats) and “significantly reduced” in data set [4] (90 days (24 weeks of age), vs untreated ZSF1 rats). Moreover, the “Glycosuria (urine glucose level)” value in data set [5] (8 days) and in data set [5] (90 days) was “reduced glycosuria” throughout. In addition, the Urine volume entry in data set [6] is given as “decreased significantly urine volume”.
For MK-8722, in data set [7], the Cardiac side effects result was “known to trigger cardiac side effects”.

Values taken from patent publication US20260216147A1, “USE OF A THIENOPYRIDONE DERIVATIVE IN THE TREATMENT OF DIABETIC NEPHROPATHY” (POXEL, priority 2020, published 2026).
